Literature values as cited in PubChem BioAssay AID1259409 (Chemical Carcinogenesis Research Information System (CCRIS), 2018).

System: rodent chemically induced tumor inhibition, incidence and multiplicity
Experiment: CCRIS tumor inhibitor studies
Conditions: Route [Inhibitor]: ORAL, Species: RAT, Promoter: NONE USED

CC1=C(/C=C/C(C)=C/C=C/C(C)=C/C(=O)NCCO)C(C)(C)CCC1
tumour outcome (control, treated, inhibition, significance) (Carcinogen: 1,2-DIMETHYLHYDRAZINE, 540-73-8, Dose [Inhibitor]: 2 MMOL/KG DIET DAILY STARTING 12 D AFTER CARCINOGEN TREATMENT THROUGH ABOUT 8 MO AFTER CARCINOGEN DOSE (STUDY DURATION:, Strain/Sex: F344/MALE, Target Tissue: Type of Lesion: COLON: ADENOCARCINOMA, Dose [Carcinogen]: 150 MG/KG BW ONCE): 10/39 (26%), 5/30 (17%), 35%, not significant | tumour outcome (control, treated, inhibition, significance) (Carcinogen: 1,2-DIMETHYLHYDRAZINE, 540-73-8, Dose [Inhibitor]: 2 MMOL/KG DIET DAILY STARTING 12 D AFTER CARCINOGEN TREATMENT THROUGH ABOUT 8 MO AFTER CARCINOGEN DOSE (STUDY DURATION:, Strain/Sex: F344/MALE, Target Tissue: Type of Lesion: COLON: ADENOMA, Dose [Carcinogen]: 150 MG/KG BW ONCE): 23/39 (59%), 11/30 (37%), 37%, not significant | tumour outcome (control, treated, inhibition, significance) (Carcinogen: L-AZASERINE, 115-02-6, Dose [Inhibitor]: 1 MMOL/KG DIET DAILY FOR 358 D STARTING 1 WK AFTER COMPLETION OF CARCINOGEN TREATMENT (STUDY DURATION: 66 WK), Strain/Sex: WISTAR-LEWIS/FEMALE, Target Tissue: Type of Lesion: PANCREAS: ADENOMA, Dose [Carcinogen]: 10 MG/KG BW 1/WK FOR 15 WK): 50%, 25%, 50%, not significant | tumour outcome (control, treated, inhibition, significance) (Carcinogen: L-AZASERINE, 115-02-6, Dose [Inhibitor]: 1 MMOL/KG DIET DAILY FOR 358 D STARTING 1 WK AFTER COMPLETION OF CARCINOGEN TREATMENT (STUDY DURATION: 66 WK), Strain/Sex: WISTAR-LEWIS/FEMALE, Target Tissue: Type of Lesion: PANCREAS: CARCINOMA IN SITU, Dose [Carcinogen]: 10 MG/KG BW 1/WK FOR 15 WK): 8%, 25%, -213%, not calculated | tumour outcome (control, treated, inhibition, significance) (Carcinogen: L-AZASERINE, 115-02-6, Dose [Inhibitor]: 1 MMOL/KG DIET DAILY FOR 358 D STARTING 1 WK AFTER COMPLETION OF CARCINOGEN TREATMENT (STUDY DURATION: 66 WK), Strain/Sex: WISTAR-LEWIS/FEMALE, Target Tissue: Type of Lesion: PANCREAS: CARCINOMA, Dose [Carcinogen]: 10 MG/KG BW 1/WK FOR 15 WK): 13%, 0%, 100%, not significant | tumour outcome (control, treated, inhibition, significance) (Carcinogen: L-AZASERINE, 115-02-6, Dose [Inhibitor]: 1 MMOL/KG DIET DAILY FOR 358 D STARTING 1 WK AFTER COMPLETION OF CARCINOGEN TREATMENT (STUDY DURATION: 66 WK), Strain/Sex: WISTAR-LEWIS/FEMALE, Target Tissue: Type of Lesion: PANCREAS: NEOPLASM, Dose [Carcinogen]: 10 MG/KG BW 1/WK FOR 15 WK): 71%, 50%, 30%, p 0.14 | tumour outcome (control, treated, inhibition, significance) (Carcinogen: L-AZASERINE, 115-02-6, Dose [Inhibitor]: 1 MMOL/KG DIET DAILY FOR 358 D STARTING 1 WK AFTER COMPLETION OF CARCINOGEN TREATMENT (STUDY DURATION: 66 WK), Strain/Sex: WISTAR-LEWIS/MALE, Target Tissue: Type of Lesion: PANCREAS: ADENOMA, Dose [Carcinogen]: 10 MG/KG BW 1/WK FOR 15 WK): 25%, 56%, -124%, not calculated | tumour outcome (control, treated, inhibition, significance) (Carcinogen: L-AZASERINE, 115-02-6, Dose [Inhibitor]: 1 MMOL/KG DIET DAILY FOR 358 D STARTING 1 WK AFTER COMPLETION OF CARCINOGEN TREATMENT (STUDY DURATION: 66 WK), Strain/Sex: WISTAR-LEWIS/MALE, Target Tissue: Type of Lesion: PANCREAS: CARCINOMA IN SITU, Dose [Carcinogen]: 10 MG/KG BW 1/WK FOR 15 WK): 29%, 28%, 3%, not significant | tumour outcome (control, treated, inhibition, significance) (Carcinogen: L-AZASERINE, 115-02-6, Dose [Inhibitor]: 1 MMOL/KG DIET DAILY FOR 358 D STARTING 1 WK AFTER COMPLETION OF CARCINOGEN TREATMENT (STUDY DURATION: 66 WK), Strain/Sex: WISTAR-LEWIS/MALE, Target Tissue: Type of Lesion: PANCREAS: CARCINOMA, Dose [Carcinogen]: 10 MG/KG BW 1/WK FOR 15 WK): 46%, 8%, 83%, p<0.05 | tumour outcome (control, treated, inhibition, significance) (Carcinogen: L-AZASERINE, 115-02-6, Dose [Inhibitor]: 1 MMOL/KG DIET DAILY FOR 358 D STARTING 1 WK AFTER COMPLETION OF CARCINOGEN TREATMENT (STUDY DURATION: 66 WK), Strain/Sex: WISTAR-LEWIS/MALE, Target Tissue: Type of Lesion: PANCREAS: NEOPLASM, Dose [Carcinogen]: 10 MG/KG BW 1/WK FOR 15 WK): 100%, 92%, 8%, not significant | tumour outcome (control, treated, inhibition, significance) (Carcinogen: L-AZASERINE, 115-02-6, Dose [Inhibitor]: 2.0 MMOL/KG DIET DAILY FOR 336 D OUT OF 358 D STARTING 1 WK AFTER COMPLETION OF CARCINOGEN TREATMENT (STUDY DURATION: 66, Strain/Sex: WISTAR-LEWIS/FEMALE, Target Tissue: Type of Lesion: PANCREAS: NEOPLASM (ADENOMA, CARCINOMA IN SITU, CARCINOMA), Dose [Carcinogen]: 10 MG/KG BW 1/WK FOR 15 WK STARTING 15 WK PRIOR TO AGENT TREATMENT): ?/24 (71%), ?/24 (25%), 65%, p<0.05 | tumour outcome (control, treated, inhibition, significance) (Carcinogen: L-AZASERINE, 115-02-6, Dose [Inhibitor]: 2 MMOL/KG DIET DAILY FOR 336 D OUT OF 358 D STARTING 1 WK AFTER COMPLETION OF CARCINOGEN TREATMENT (STUDY DURATION: 66 W, Strain/Sex: WISTAR-LEWIS/FEMALE, Target Tissue: Type of Lesion: PANCREAS: ADENOMA, Dose [Carcinogen]: 10 MG/KG BW 1/WK FOR 15 WK): 50%, 13%, 74%, not significant | tumour outcome (control, treated, inhibition, significance) (Carcinogen: L-AZASERINE, 115-02-6, Dose [Inhibitor]: 2 MMOL/KG DIET DAILY FOR 336 D OUT OF 358 D STARTING 1 WK AFTER COMPLETION OF CARCINOGEN TREATMENT (STUDY DURATION: 66 W, Strain/Sex: WISTAR-LEWIS/FEMALE, Target Tissue: Type of Lesion: PANCREAS: CARCINOMA IN SITU, Dose [Carcinogen]: 10 MG/KG BW 1/WK FOR 15 WK): 8%, 13%, -63%, not significant | tumour outcome (control, treated, inhibition, significance) (Carcinogen: L-AZASERINE, 115-02-6, Dose [Inhibitor]: 2 MMOL/KG DIET DAILY FOR 336 D OUT OF 358 D STARTING 1 WK AFTER COMPLETION OF CARCINOGEN TREATMENT (STUDY DURATION: 66 W, Strain/Sex: WISTAR-LEWIS/FEMALE, Target Tissue: Type of Lesion: PANCREAS: CARCINOMA, Dose [Carcinogen]: 10 MG/KG BW 1/WK FOR 15 WK STARTING 15 WK PRIOR TO AGENT TREATMENT): ?/24 (13%), ?/24 (0%), 100%, not significant | tumour outcome (control, treated, inhibition, significance) (Carcinogen: L-AZASERINE, 115-02-6, Dose [Inhibitor]: 2 MMOL/KG DIET DAILY FOR 336 D OUT OF 358 D STARTING 1 WK AFTER COMPLETION OF CARCINOGEN TREATMENT (STUDY DURATION: 66 W, Strain/Sex: WISTAR-LEWIS/MALE, Target Tissue: Type of Lesion: PANCREAS: ADENOMA, Dose [Carcinogen]: 10 MG/KG BW 1/WK FOR 15 WK): 25%, 28%, -12%, not significant | tumour outcome (control, treated, inhibition, significance) (Carcinogen: L-AZASERINE, 115-02-6, Dose [Inhibitor]: 2 MMOL/KG DIET DAILY FOR 336 D OUT OF 358 D STARTING 1 WK AFTER COMPLETION OF CARCINOGEN TREATMENT (STUDY DURATION: 66 W, Strain/Sex: WISTAR-LEWIS/MALE, Target Tissue: Type of Lesion: PANCREAS: CARCINOMA IN SITU, Dose [Carcinogen]: 10 MG/KG BW 1/WK FOR 15 WK): 29%, 44%, -52%, not significant | tumour outcome (control, treated, inhibition, significance) (Carcinogen: L-AZASERINE, 115-02-6, Dose [Inhibitor]: 2 MMOL/KG DIET DAILY FOR 336 D OUT OF 358 D STARTING 1 WK AFTER COMPLETION OF CARCINOGEN TREATMENT (STUDY DURATION: 66 W, Strain/Sex: WISTAR-LEWIS/MALE, Target Tissue: Type of Lesion: PANCREAS: CARCINOMA, Dose [Carcinogen]: 10 MG/KG BW 1/WK FOR 15 WK): 46%, 4%, 91%, p<0.05 | tumour outcome (control, treated, inhibition, significance) (Carcinogen: L-AZASERINE, 115-02-6, Dose [Inhibitor]: 2 MMOL/KG DIET DAILY FOR 336 D OUT OF 358 D STARTING 1 WK AFTER COMPLETION OF CARCINOGEN TREATMENT (STUDY DURATION: 66 W, Strain/Sex: WISTAR-LEWIS/MALE, Target Tissue: Type of Lesion: PANCREAS: NEOPLASM, Dose [Carcinogen]: 10 MG/KG BW 1/WK FOR 15 WK): 100%, 76%, 24%, not significant | tumour outcome (control, treated, inhibition, significance) (Carcinogen: N-(4-(5-NITRO-2-FURYL)-2-THIAZOLYL)FORMAMIDE, 24554-26-5, Dose [Inhibitor]: 343 MG/KG DIET DAILY FOR 39 WK STARTING ONE WK FOLLOWING THE TERMINATION OF CARCINOGEN ADMINISTRATION (STUDY DURATION: 5, Strain/Sex: F344/FEMALE, Target Tissue: Type of Lesion: URINARY BLADDER: CARCINOMA, Dose [Carcinogen]: 2 G/KG IN DIET DAILY FOR 10 WK): 105/200 (53%), 67/100 (67%), -26%, p 0.0167 | tumour outcome (control, treated, inhibition, significance) (Carcinogen: N-(4-(5-NITRO-2-FURYL)-2-THIAZOLYL)FORMAMIDE, 24554-26-5, Dose [Inhibitor]: 343 MG/KG/D IN DIET FOR 39 WK STARTING 1 WK POST CARCINOGEN TREATMENT (STUDY DURATION: 50 WK), Strain/Sex: F344/FEMALE, Target Tissue: Type of Lesion: URINARY BLADDER: CARCINOMA, Dose [Carcinogen]: 2 G/KG/D IN DIET FOR 10 WK): 105/200 (53%), 67/100 (67%), -26%, p 0.0167 | tumour outcome (control, treated, inhibition, significance) (Carcinogen: N-(4-(5-NITRO-2-FURYL)-2-THIAZOLYL)FORMAMIDE, 24554-26-5, Dose [Inhibitor]: 343 MG/KG/D IN DIET FOR 39 WK STARTING 1 WK POST CARCINOGEN TREATMENT (STUDY DURATION: 50 WK), Strain/Sex: F344/FEMALE, Target Tissue: Type of Lesion: URINARY BLADDER: PAPILLOMA, Dose [Carcinogen]: 2 G/KG/D IN DIET FOR 10 WK): 15/200 (7.5%), 24/100 (24%), -220%, p 0.00006 | tumour outcome (control, treated, inhibition, significance) (Carcinogen: N-(4-(5-NITRO-2-FURYL)-2-THIAZOLYL)FORMAMIDE, 24554-26-5, Dose [Inhibitor]: 686 MG/KG DIET DAILY FOR 39 WK STARTING ONE WK FOLLOWING THE TERMINATION OF CARCINOGEN ADMINISTRATION (STUDY DURATION: 5, Strain/Sex: F344/FEMALE, Target Tissue: Type of Lesion: URINARY BLADDER: CARCINOMA, Dose [Carcinogen]: 2 G/KG IN DIET DAILY FOR 10 WK): 105/200 (53%), 49/100 (49%), 8%, p 0.5657 | tumour outcome (control, treated, inhibition, significance) (Carcinogen: N-(4-(5-NITRO-2-FURYL)-2-THIAZOLYL)FORMAMIDE, 24554-26-5, Dose [Inhibitor]: 686 MG/KG DIET DAILY FOR 39 WK STARTING ONE WK FOLLOWING THE TERMINATION OF CARCINOGEN ADMINISTRATION (STUDY DURATION: 5, Strain/Sex: F344/FEMALE, Target Tissue: Type of Lesion: URINARY BLADDER: PAPILLOMA, Dose [Carcinogen]: 2 G/KG IN DIET DAILY FOR 10 WK): 15/200 (8%), 17/100 (17%), -113%, p 0.012
